Measured values taken from patent US20230218604A1, “PPARy AGONIST FOR TREATMENT OF PROGRESSIVE [sequence] PALSY” (Coherus Biosciences, Inc., priority 2022, published 2023).
Where “and” joins values, the source holds several entries; their conditions need not be identical. Equal entries are not always repeated. Entries after “also recorded” stand apart in the source; their conditions may differ.

Columns and labels:
adiponectin [1] = experiment: 24-week randomized, double-blind, placebo-controlled study in type 2 diabetes: serum adiponectin levels; format: in vivo, human; settings: for Mean Adiponectin, Week 24 / Mean Change in adiponectin from baseline (Week 0) to Week 24 / Mean Adiponectin, Week 0: (SD); for Mean Change in adiponectin from baseline (Week 0) to Week 24: LOCF; for Mean Adiponectin, Week 0: baseline, type 2 diabetes subjects
Procedure: A randomized, double-blind, placebo-controlled, 24-week study was conducted in which adiponectin levels were measured. […] 367 subjects with type 2 diabetes (TD2)—a disease in which patient adiponectin levels are reduced—were randomly assigned to receive either 0.5, 1, 2 or 3 milligrams (“mg”) of INT131 besylate, 45 mg of pioglitazone or placebo daily for 24 weeks. To measure adiponectin levels blood was drawn at Weeks 0, 2, 6, 12 and 24. At baseline (Week 0) mean adiponectin levels were 1.94 micrograms per milliliter (“µg/mL”). The mean adiponectin levels at baseline and Week 24, and the mean change in adiponectin levels from baseline (Week 0) to Week 24 are disclosed in Table 1, below. The standard deviation for samples tested in each group is listed in (parenthesis). Mean baseline adiponectin values were similar for the treatment groups.

adiponectin [2] = experiment: 14-day study of serum adiponectin levels in healthy subjects; format: in vivo, human
Procedure: A study was conducted to determine the effect of INT131 on serum adiponectin levels. Thirty healthy subjects were randomly selected to receive either placebo, 0.1 mg INT131, 1 mg INT131 or 4 mg INT131 daily for 14 days. To measure adiponectin levels blood was drawn at Days 1, 4, 8 and 14.

HbA1c [3] = settings: DePaoli et al. Diabetes Care 2014; cited from earlier work
[4] = in vivo; cited from earlier work
[5] = subjects taking INT131 vs those taking pioglitazone; DePaoli et al. 2014; cited from earlier work
HbA1c [6] = experiment: 24-week randomized, double-blind, placebo-controlled study in type 2 diabetes: HbA1c levels; format: in vivo, human; settings: 24 weeks
[7] = RRMS study: monthly contrast MRI, cumulative CE lesions and new/enlarged T2 lesions; format: in vivo, human; settings: for Reduction of CE lesion burden vs. placebo: 6 months; for Cumulative CE lesions over 6 months: complete case analysis
Procedure: (§1) 227 treatment-naive adult subjects (mean age 31 [range 18-50]; 65% female) were randomized into one of three arms: oral CHS-131 at 3 mg (n=76); oral CHS-131 at 1 mg (n=76); placebo (n=75), at 21 sites in Russia. 97% completed Part 1. Inclusion criteria: Relapsing Remitting Multiple Sclerosis (RRMS) for ≤3 years, ≥1 gadolinium-positive lesion within 1-year of enrollment, and an EDSS ≤ 6 at screening. The patients underwent monthly MRI examinations with contrast to identify new inflammatory lesions. All MRIs were read blinded at the Buffalo Neuroimaging Center (Buffalo, NY). In addition to CE lesions the images were scored for cumulative new/enlarged T2 lesions, and serial cortical and whole brain volumetric analysis.

[8] = RRMS study: serial cortical and whole brain volumetric MRI analysis; format: in vivo, human; settings: 3 mg daily, 6 months
Procedure: as §1

CCc1ccc(CCOc2ccc(CC3SC(=O)NC3=O)cc2)nc1 (centres unmarked) [pioglitazone, reference compound]
Mean Adiponectin, Week 24 (adiponectin [1]; 45 mg pioglitazone daily for 24 weeks): 5.28 (3.222) µg/mL | Mean Change in adiponectin from baseline (Week 0) to Week 24 (adiponectin [1]; 45 mg pioglitazone daily): 2.96 µg/mL | Mean Change in adiponectin from baseline (Week 0) to Week 24 (adiponectin [1]; 45 mg pioglitazone daily, listed as Pioglitazone): 2.96 (2.618) µg/mL | Mean Adiponectin, Week 0 (adiponectin [1]; 45 mg pioglitazone group): 2.32 (2.185) µg/mL

O=S(=O)(Nc1cc(Cl)c(Oc2cnc3ccccc3c2)c(Cl)c1)c1ccc(Cl)cc1Cl [INT131]
Change in serum adiponectin levels, Day 1 to Day 14 and over placebo (adiponectin [2]; 0.1 mg INT131 daily for 14 days): no significant change | Change in serum adiponectin levels over placebo and from Day 1 to Day 14 (adiponectin [2]; 1 mg or 4 mg INT131 daily for 14 days): significant change | Efficacy in reducing HbA1c levels versus 45 mg of pioglitazone (HbA1c [3]): equally efficacious | Mean Adiponectin, Week 24 (adiponectin [1]; 0.5 mg INT131 daily for 24 weeks): 2.28 (1.540) µg/mL | Mean Change in adiponectin from baseline (Week 0) to Week 24 (adiponectin [1]; 0.5 mg INT131 daily): 0.56 µg/mL and 0.56 (0.906) µg/mL | Mean Adiponectin, Week 0 (adiponectin [1]; 0.5 mg INT131 group): 1.73 (1.190) µg/mL | Adiponectin levels, treatment comparison with pioglitazone 45 mg (adiponectin [1]; 0.5 mg, 1 mg and 3 mg doses of INT131, p≤0.0408): statistically significant | Mean Adiponectin, Week 24 (adiponectin [1]; 1 mg INT131 daily for 24 weeks): 3.15 (2.533) µg/mL | Mean Change in adiponectin from baseline (Week 0) to Week 24 (adiponectin [1]; 1 mg INT131 daily): 1.28 µg/mL and 1.28 (1.882) µg/mL | Mean Adiponectin, Week 0 (adiponectin [1]; 1 mg INT131 group): 1.87 (1.217) µg/mL | Adiponectin levels, treatment comparison with placebo (adiponectin [1]; 1 mg, 2 mg and 3 mg doses of INT131, p≤0.0109): statistically significant increase | Mean Adiponectin, Week 24 (adiponectin [1]; 2 mg INT131 daily for 24 weeks): 5.14 (3.650) µg/mL | Mean Change in adiponectin from baseline (Week 0) to Week 24 (adiponectin [1]; 2 mg INT131 daily): 3.27 µg/mL and 3.27 (3.002) µg/mL | Mean Adiponectin, Week 0 (adiponectin [1]; 2 mg INT131 group): 1.87 (1.098) µg/mL | Mean Adiponectin, Week 24 (adiponectin [1]; 3 mg INT131 daily for 24 weeks): 5.83 (4.826) µg/mL | Mean Change in adiponectin from baseline (Week 0) to Week 24 (adiponectin [1]; 3 mg INT131 daily): 3.83 µg/mL and 3.83 (4.313) µg/mL | Mean Adiponectin, Week 0 (adiponectin [1]; 3 mg INT131 group): 2.00 (1.215) µg/mL | Crossing of the blood brain barrier [4]: more readily than other PPARγ agonists; also recorded: readily crosses the blood brain barrier | Side effects versus pioglitazone [5]: less edema, weight gain, and hemodilution | Reduction of HbA1c levels as compared to placebo (HbA1c [6]; 1, 2 and 3 mg doses of INT131 daily): statistically significant reduction | Reduction of HbA1c levels compared with 45 mg of pioglitazone (HbA1c [6]; 2 and 3 mg doses of INT131 daily): at least as well as 45 mg of pioglitazone | Cumulative CE lesions over 6 months, LSMean ([7]; 1 mg oral): 5.15 | Reduction of CE lesion burden vs. placebo ([7]; 1 mg oral, p=ns): 21% | Cumulative CE lesions over 6 months ([7]; 1 mg oral): 7.6 | Reduction of new/enlarged T2 lesions compared to placebo ([7]; 1 mg, p=ns): 14% | Cumulative CE lesions over 6 months, LSMean ([7]; 3 mg daily oral): 3.10 | Reduction of CE lesion burden vs. placebo ([7]; 3 mg daily oral, p=0.003): 52% | Cumulative CE lesions over 6 months ([7]; 3 mg daily oral): 4.2 lesions | Reduction of new/enlarged T2 lesions compared to placebo ([7]; 3 mg, p=0.0767): 30% | Less cortical volume loss compared to placebo [8]: 34.2% | Less whole brain volume loss compared to placebo [8]: 50%
